Measurements published in US8871460B2, “Gamma-secretase modulatory compounds, methods for identifying same, and uses therefor” (Neurogenetic Pharmaceuticals, Inc., priority 2009, dated 2014).

How the values were obtained:
[1] = test system: Pen-2; assay: Compound 1-conjugated Affi-Gel resin pull-down from CHO-APPSwe whole-cell lysate, immunoblot; type: binding, Chinese Hamster
Experimental: (§1) Compound 1, which bears a primary amine, was conjugated to Affi-Gel 10 resin (BioRad #153-6046) according to manufacturer's instructions. Compound 1 was dissolved in DMSO to a final concentration of 15 mg/ml. One ml of compound was mixed with approximately 1 ml of resin previously equilibrated in isopropanol. The compound and resin were rotated at room temperature for approximately 3 hr, washed with DMSO and the remaining unreacted groups were blocked with ethanolamine. The efficiency of coupling was generally greater than 80%, as determined by LC-MS analysis, with approximately 10-15 μmol of compound per ml of resin final concentration.
(§2) Solubilized whole-cell lysates from CHO-APPSwe cells (Chinese Hamster Ovary cells expressing human APP^695 with the K670N/M671L “Swedish” mutation) were prepared in PLC buffer (20 mM Hepes pH 7.5, 1 mM EDTA, 150 mM NaCl, 1% Triton X-100, 0.2% Tween-20). Lysates were pre-cleared by incubating with 200 μl of blocked resin at 4° C. for 1 hr. The resin was pelleted and the resulting lysate was centrifuged at 13,000×g for 15 min to pellet any protein precipitates. One mg (approximately 2 mg/ml) of the pre-cleared whole cell lysate was incubated with 100 μl of either Compound 1-conjugated resin, or with unconjugated resin, for two hours at room temperature, with constant rotation. After incubation, the resin was pelleted at low speed and the supernatant (i.e. unbound proteins) collected. The resin was washed 3-5 times with 1 ml of PLC buffer. Bound proteins were eluted with 200-300 μl aliquots of SDS denaturing sample buffer (0.25 M Tris-HCl, pH 6.8; 5% (w/v) SDS; 0.05% bromophenol blue; 10% glycerol; 2.5% 2-mercaptoethanol). Equal volumes of whole cell lysate (WCL) and supernatant in SDS denaturing sample buffer, as well as eluates from each resin, were run in separate lanes on a 4-20% SDS-PAGE gel. The electrophoresed proteins were transferred to a nitrocellulose membrane (Invitrogen #LC2001) and immunoblotted with antibodies that specifically recognize either Pen-2 (PNT2; gift of Gopal Thinakaran, see Luo et al. (2003), J. Biol. Chem. 278:7850-7854), presenilin 1 N-terminal fragment (PS1-NTF; gift of Gopal Thinakaran), presenilin 1 C-terminal fragment (PS1-CTF; Calbiochem #529592), nicastrin (Nct; Sigma #N-1660), amyloid precursor protein (APP; antibody R8666, PCT publication WO 04/018997) or phopholipase C-gamma (PLCγ; Upstate #06-152).

[2] = test system: nicastrin (Nct); assay: as above; type: binding, Chinese Hamster
Experimental: as §1, §2

[3] = test system: phopholipase C-gamma (PLCγ); assay: as above; type: binding, Chinese Hamster
Experimental: as §1, §2

[4] = test system: presenilin 1 C-terminal fragment (PS1-CTF); assay: as above; type: binding, Chinese Hamster
Experimental: as §1, §2

[5] = test system: presenilin 1 N-terminal fragment (PS1-NTF); assay: as above; type: binding, Chinese Hamster; conditions: some present in eluate, not substantially depleted from starting lysate
Experimental: as §1, §2

[6] = molecular target: T1, APP holoenzyme (APP-Holo) (Homo sapiens, UniProt P05067, K670N/M671L); assay: as above; type: binding
T1 construct: expressed in transfected cells; host or cells: CHO (Chinese Hamster Ovary)
Experimental: as §1
Solubilized whole-cell lysates from CHO-APPSwe cells (Chinese Hamster Ovary cells expressing human APP^695 with the K670N/M671L “Swedish” mutation) were prepared in PLC buffer (20 mM Hepes pH 7.5, 1 mM EDTA, 150 mM NaCl, 1% Triton X-100, 0.2% Tween-20). Lysates were pre-cleared by incubating with 200 μl of blocked resin at 4° C. for 1 hr. The resin was pelleted and the resulting lysate was centrifuged at 13,000×g for 15 min to pellet any protein precipitates. One mg (approximately 2 mg/ml) of the pre-cleared whole cell lysate was incubated with 100 μl of either Compound 1-conjugated resin, or with unconjugated resin, for two hours at room temperature, with constant rotation. […]

[7] = molecular target: T2, Pen-2 (Homo sapiens, UniProt Q9NZ42); assay: Binding of Compound 1 to Pen-2 in lysates prepared from PS1-deficient cells
T2 construct: endogenous in cells; host or cells: PS1-deficient cells (not further described)

[8] = molecular target: T3, GST (Schistosoma japonicum, UniProt P08515); assay: Compound 1-conjugated Affi-Gel resin binding of isolated protein, immunoblot
T3 construct: purchased Abnova Corp
Experimental: (§3) Prior to assessing binding to Compound 1, the proteins used in the binding assay were characterized. Purified GST (Abnova Corp) and GST-Pen2 (Abnova Corp #H00055851-PO1) proteins were confirmed to react with anti-GST (Novagen #71097-3) and anti-Pen-2 (PNT2) antibodies on an immunoblot. […] To prepare purified Pen-2, about 1 μg of GST-Pen-2 was incubated with 4 μg of PreScission™ protease for 4 hr at 4° C. in Cleavage Buffer (50 mM Tris pH 7.4, 150 mM NaCl, 1 mM EDTA, 1% Triton X-100, 10% glycerol, 1 mg/ml phosphatidylcholine). Free GST and protease were removed by adding glutathione resin (Sigma #G4510) for 1 hr with rotation, and spinning down the resin. The supernatant, containing purified Pen-2, was collected.
(§4) Compound 1-conjugated and unconjugated Affi-Gel 10 resins were prepared essentially as described in Example 1. […]

[9] = molecular target: T4, Purified Pen-2 (Homo sapiens, UniProt Q9NZ42); assay: as above; conditions: elute lane, vs unconjugated resin
T4 construct: GST (N, cleaved yes); purchased Abnova Corp H00055851-PO1
Experimental: as §3, §4

[10] = molecular target: GST-Pen2 (Homo sapiens, UniProt Q9NZ42); assay: as above; design: purchased Abnova Corp H00055851-PO1; conditions: elute lane, vs unconjugated resin
Experimental: as §3, §4

T1 sequence (P05067 other isoform, or with tags, fused parts or gaps K595N/M596L): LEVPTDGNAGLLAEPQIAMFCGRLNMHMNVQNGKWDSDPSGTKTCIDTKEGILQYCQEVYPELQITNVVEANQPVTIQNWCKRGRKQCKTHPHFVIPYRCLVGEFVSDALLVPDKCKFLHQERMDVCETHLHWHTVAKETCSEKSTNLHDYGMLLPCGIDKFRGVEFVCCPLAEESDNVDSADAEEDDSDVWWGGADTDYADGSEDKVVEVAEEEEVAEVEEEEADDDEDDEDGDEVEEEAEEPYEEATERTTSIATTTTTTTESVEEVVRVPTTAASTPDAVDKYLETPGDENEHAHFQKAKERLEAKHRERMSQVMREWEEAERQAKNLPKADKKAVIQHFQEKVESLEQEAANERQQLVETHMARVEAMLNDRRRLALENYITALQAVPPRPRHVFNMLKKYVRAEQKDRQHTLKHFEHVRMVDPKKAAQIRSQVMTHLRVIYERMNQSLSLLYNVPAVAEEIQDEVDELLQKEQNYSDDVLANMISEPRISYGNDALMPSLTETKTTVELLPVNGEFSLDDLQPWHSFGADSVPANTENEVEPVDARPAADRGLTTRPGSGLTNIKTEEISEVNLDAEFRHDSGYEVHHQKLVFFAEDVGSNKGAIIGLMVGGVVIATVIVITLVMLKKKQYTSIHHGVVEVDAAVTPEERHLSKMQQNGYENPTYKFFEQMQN
T3 sequence (P08515 whole entry): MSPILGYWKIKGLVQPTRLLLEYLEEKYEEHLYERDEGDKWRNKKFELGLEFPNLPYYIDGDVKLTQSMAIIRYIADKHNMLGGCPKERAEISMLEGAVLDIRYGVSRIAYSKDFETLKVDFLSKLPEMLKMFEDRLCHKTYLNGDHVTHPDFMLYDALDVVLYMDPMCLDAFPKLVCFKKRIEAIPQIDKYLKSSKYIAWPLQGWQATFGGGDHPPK
T2 sequence (Q9NZ42 whole entry): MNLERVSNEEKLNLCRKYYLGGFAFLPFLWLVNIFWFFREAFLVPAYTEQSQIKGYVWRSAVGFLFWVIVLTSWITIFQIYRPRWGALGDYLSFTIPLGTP
T4 sequence (Q9NZ42 whole entry): as above
GST-Pen2, sequence (Q9NZ42 whole entry): as above

Compound: Cc1cn(-c2ccc(-c3csc(Nc4cc(C(C)C)c(OCCN)cc4C)n3)cc2F)cn1 [Compound 1]
- depletion of Pen-2 from whole cell lysate applied to the Compound 1-conjugated column [1]: substantially depleted
- Pen-2 in SDS eluate from resin ([1]; Compound 1-conjugated vs unconjugated Affi-Gel 10 resin, 2 h room temperature): present in the SDS eluate from the Compound 1-conjugated resin, but not from the unconjugated resin
- binding of Nct to Compound 1-conjugated resin [2]: did not bind
- binding of PLCγ to Compound 1-conjugated resin [3]: did not bind
- binding of PS1-CTF to Compound 1-conjugated resin [4]: did not bind
- binding of N-terminal fragment (NTF) of PS1 to Compound 1 [5]: minimal binding
- binding of APP-Holo to Compound 1-conjugated resin [6]: did not bind
- binding to Pen-2 present in lysates prepared from PS1-deficient cells [7]: demonstrated binding
- binding of GST to Compound 1 resin [8]: did not bind
- binding of purified Pen-2 to Compound 1-conjugated resin [9]: selectively bind
- binding of GST-Pen-2 to Compound 1-conjugated resin [10]: selectively bind
